Test results as given in PubChem BioAssay (NCI).
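All cell lines were grown in 96-well plates and treated with compound for 48 hours. GI50: concentration for 50% inhibition of growth. TGI denotes the concentration required for complete inhibition of growth.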

How the values were obtained:
Assay in all cases: NCI anticancer screen, dose series, 48 h
U251 CNS = system: U251 CNS
NCI/ADR-RES ovarian = system: NCI/ADR-RES ovarian
MDA-MB-435 = system: MDA-MB-435
SNB-19 CNS = system: SNB-19 CNS
SF-268 CNS = system: SF-268 CNS
HT29 colon = system: HT29 colon
UACC-62 melanoma = system: UACC-62 melanoma
SK-MEL-28 melanoma = system: SK-MEL-28 melanoma
CCRF-CEM leukemia = system: CCRF-CEM leukemia
786-0 renal = system: 786-0 renal
NCI-H23 lung = system: NCI-H23 lung
KM12 colon = system: KM12 colon
A549 NSCLC = system: A549 NSCLC
SK-MEL-5 melanoma = system: SK-MEL-5 melanoma
HCT-15 colon = system: HCT-15 colon
MALME-3M melanoma = system: MALME-3M melanoma
ACHN renal = system: ACHN renal
HCC-2998 colon = system: HCC-2998 colon
A498 renal = system: A498 renal
SW-620 colon = system: SW-620 colon
NCI-H226 lung = system: NCI-H226 lung
LOX IMVI melanoma = system: LOX IMVI melanoma
CAKI-1 renal = system: CAKI-1 renal
K-562 leukemia = system: K-562 leukemia
HOP-92 NSCLC = system: HOP-92 NSCLC
SN12C renal = system: SN12C renal
SK-MEL-2 melanoma = system: SK-MEL-2 melanoma
NCI-H522 lung = system: NCI-H522 lung
IGROV1 ovarian = system: IGROV1 ovarian
UACC-257 melanoma = system: UACC-257 melanoma
DU-145 prostate = system: DU-145 prostate
PC-3 prostate = system: PC-3 prostate
HL-60(TB) leukemia = system: HL-60(TB) leukemia
MDA-MB-231 breast = system: MDA-MB-231 breast
BT-549 breast = system: BT-549 breast
NCI-H460 lung = system: NCI-H460 lung
OVCAR-8 ovarian = system: OVCAR-8 ovarian
COLO 205 colon = system: COLO 205 colon
T-47D breast = system: T-47D breast
SR leukemia = system: SR leukemia
HCT-116 colon = system: HCT-116 colon
TK-10 renal = system: TK-10 renal
SNB-75 CNS = system: SNB-75 CNS
HS 578T breast = system: HS 578T breast
UO-31 renal = system: UO-31 renal
OVCAR-4 ovarian = system: OVCAR-4 ovarian
M14 melanoma = system: M14 melanoma
HOP-62 NSCLC = system: HOP-62 NSCLC
MOLT-4 leukemia = system: MOLT-4 leukemia
EKVX NSCLC = system: EKVX NSCLC
OVCAR-3 ovarian = system: OVCAR-3 ovarian
OVCAR-5 ovarian = system: OVCAR-5 ovarian
SK-OV-3 ovarian = system: SK-OV-3 ovarian
SF-539 CNS = system: SF-539 CNS
RPMI-8226 leukemia = system: RPMI-8226 leukemia
MCF7 breast = system: MCF7 breast
SF-295 CNS = system: SF-295 CNS
RXF 393 renal = system: RXF 393 renal

COc1ccc(-c2c(C#N)c(N)nc3c2CCS(=O)(=O)c2ccccc2-3)cc1
TGI (U251 CNS): > 100 µM
TGI (NCI/ADR-RES ovarian): > 100 µM
TGI (MDA-MB-435): > 100 µM
TGI (SNB-19 CNS): > 100 µM
TGI (SF-268 CNS): > 100 µM
TGI (HT29 colon): > 100 µM
TGI (UACC-62 melanoma): > 100 µM
TGI (SK-MEL-28 melanoma): > 100 µM
TGI (CCRF-CEM leukemia): > 100 µM
TGI (786-0 renal): > 100 µM
TGI (NCI-H23 lung): > 100 µM
TGI (KM12 colon): > 100 µM
TGI (A549 NSCLC): > 100 µM
TGI (SK-MEL-5 melanoma): > 100 µM
TGI (HCT-15 colon): > 100 µM
TGI (MALME-3M melanoma): > 100 µM
TGI (ACHN renal): > 100 µM
TGI (HCC-2998 colon): > 100 µM
TGI (A498 renal): > 100 µM
TGI (SW-620 colon): > 100 µM
TGI (NCI-H226 lung): > 100 µM
TGI (LOX IMVI melanoma): > 100 µM
TGI (CAKI-1 renal): > 100 µM
TGI (K-562 leukemia): > 100 µM
TGI (HOP-92 NSCLC): > 100 µM
TGI (SN12C renal): > 100 µM
TGI (SK-MEL-2 melanoma): > 100 µM
TGI (NCI-H522 lung): > 100 µM
TGI (IGROV1 ovarian): > 100 µM
TGI (UACC-257 melanoma): > 100 µM
TGI (DU-145 prostate): > 100 µM
TGI (PC-3 prostate): > 100 µM
TGI (HL-60(TB) leukemia): > 100 µM
TGI (MDA-MB-231 breast): > 100 µM
TGI (BT-549 breast): > 100 µM
TGI (NCI-H460 lung): > 100 µM
TGI (OVCAR-8 ovarian): > 100 µM
TGI (COLO 205 colon): > 100 µM
TGI (T-47D breast): > 100 µM
TGI (SR leukemia): > 100 µM
TGI (HCT-116 colon): > 100 µM
TGI (TK-10 renal): > 100 µM
TGI (SNB-75 CNS): > 100 µM
TGI (HS 578T breast): > 100 µM
TGI (UO-31 renal): > 100 µM
TGI (OVCAR-4 ovarian): > 100 µM

COc1cc(C2=C(c3ccccc3)COC2=O)cc(OC)c1OC
GI50 (U251 CNS): 5.86 µM
TGI (U251 CNS): > 100 µM
GI50 (M14 melanoma): 1.79 µM
TGI (M14 melanoma): > 27.7 µM
GI50 (MDA-MB-435): 0.168 µM
TGI (MDA-MB-435): 0.645 µM
GI50 (SNB-19 CNS): 4.42 µM
TGI (SNB-19 CNS): > 100 µM
GI50 (SF-268 CNS): 2.39 µM
TGI (SF-268 CNS): > 76.5 µM
GI50 (HT29 colon): 3.13 µM
TGI (HT29 colon): 97.5 µM
GI50 (UACC-62 melanoma): 1.63 µM
TGI (UACC-62 melanoma): > 100 µM
GI50 (SK-MEL-28 melanoma): > 100 µM
TGI (SK-MEL-28 melanoma): > 100 µM
GI50 (CCRF-CEM leukemia): 1.38 µM
TGI (CCRF-CEM leukemia): > 100 µM
GI50 (HOP-62 NSCLC): 2.07 µM
TGI (HOP-62 NSCLC): > 100 µM
GI50 (786-0 renal): 4.3 µM
TGI (786-0 renal): > 100 µM
GI50 (NCI-H23 lung): 2.41 µM
TGI (NCI-H23 lung): > 27.7 µM
GI50 (KM12 colon): 0.593 µM
TGI (KM12 colon): > 31.7 µM
GI50 (A549 NSCLC): 6.78 µM
TGI (A549 NSCLC): > 58.7 µM
GI50 (SK-MEL-5 melanoma): 1.4 µM
TGI (SK-MEL-5 melanoma): 19.3 µM
GI50 (HCT-15 colon): 2.96 µM
TGI (HCT-15 colon): > 100 µM
GI50 (MOLT-4 leukemia): 4.18 µM
TGI (MOLT-4 leukemia): > 100 µM
GI50 (MALME-3M melanoma): 0.439 µM
TGI (MALME-3M melanoma): > 100 µM
GI50 (ACHN renal): > 43.5 µM
TGI (ACHN renal): > 100 µM
GI50 (HCC-2998 colon): 1.27 µM
TGI (HCC-2998 colon): 5.97 µM
GI50 (A498 renal): 6.87 µM
TGI (A498 renal): > 66.1 µM
GI50 (SW-620 colon): 1.68 µM
TGI (SW-620 colon): > 100 µM
GI50 (NCI-H226 lung): 59.2 µM
TGI (NCI-H226 lung): > 100 µM
GI50 (LOX IMVI melanoma): 18.6 µM
TGI (LOX IMVI melanoma): > 100 µM
GI50 (CAKI-1 renal): 0.585 µM
TGI (CAKI-1 renal): > 27.7 µM
GI50 (K-562 leukemia): 0.289 µM
TGI (K-562 leukemia): > 100 µM
GI50 (HOP-92 NSCLC): 13.6 µM
TGI (HOP-92 NSCLC): > 100 µM
GI50 (EKVX NSCLC): > 31.8 µM
TGI (EKVX NSCLC): > 100 µM
GI50 (SN12C renal): 5.96 µM
TGI (SN12C renal): > 100 µM
GI50 (OVCAR-3 ovarian): 0.309 µM
TGI (OVCAR-3 ovarian): 2.1 µM
GI50 (SK-MEL-2 melanoma): 7.81 µM
TGI (SK-MEL-2 melanoma): > 100 µM
GI50 (NCI-H522 lung): 2.48 µM
TGI (NCI-H522 lung): > 57.4 µM
GI50 (OVCAR-5 ovarian): 4.84 µM
TGI (OVCAR-5 ovarian): > 100 µM
GI50 (IGROV1 ovarian): 5.82 µM
TGI (IGROV1 ovarian): > 56.5 µM
GI50 (UACC-257 melanoma): > 25 µM
TGI (UACC-257 melanoma): > 94.8 µM
GI50 (SK-OV-3 ovarian): 4.56 µM
TGI (SK-OV-3 ovarian): > 100 µM
GI50 (DU-145 prostate): 4.68 µM
TGI (DU-145 prostate): > 100 µM
GI50 (PC-3 prostate): 1.35 µM
TGI (PC-3 prostate): > 100 µM
GI50 (HL-60(TB) leukemia): 0.409 µM
TGI (HL-60(TB) leukemia): 2.14 µM
GI50 (MDA-MB-231 breast): 3.2 µM
TGI (MDA-MB-231 breast): > 100 µM
GI50 (BT-549 breast): 33.9 µM
TGI (BT-549 breast): > 100 µM
GI50 (SF-539 CNS): 1.26 µM
TGI (SF-539 CNS): > 51.4 µM
GI50 (NCI-H460 lung): 0.966 µM
TGI (NCI-H460 lung): 56.4 µM
GI50 (OVCAR-8 ovarian): 5.04 µM
TGI (OVCAR-8 ovarian): > 51.4 µM
GI50 (COLO 205 colon): 0.834 µM
TGI (COLO 205 colon): 6.69 µM
GI50 (RPMI-8226 leukemia): 1.12 µM
TGI (RPMI-8226 leukemia): 5.28 µM
GI50 (T-47D breast): 20.9 µM
TGI (T-47D breast): > 100 µM
GI50 (MCF7 breast): 0.537 µM
TGI (MCF7 breast): > 100 µM
TGI (SR leukemia): 0.295 µM
GI50 (HCT-116 colon): 2.29 µM
TGI (HCT-116 colon): > 38.1 µM
GI50 (SF-295 CNS): 0.324 µM
TGI (SF-295 CNS): 2.9 µM
GI50 (TK-10 renal): 1.37 µM
TGI (TK-10 renal): > 30.6 µM
GI50 (RXF 393 renal): 1.56 µM
TGI (RXF 393 renal): > 100 µM
GI50 (SNB-75 CNS): > 100 µM
TGI (SNB-75 CNS): > 100 µM
GI50 (HS 578T breast): 5.61 µM
TGI (HS 578T breast): > 90 µM
GI50 (UO-31 renal): 7.77 µM
TGI (UO-31 renal): > 49.9 µM
GI50 (OVCAR-4 ovarian): 38.9 µM
TGI (OVCAR-4 ovarian): > 100 µM
